Assay results: patent publication EP4446411A1, “VARIANT SUBTILISIN PROTEASES” (PEACCEL, priority 2023, dated 2024)
Numbering of substitutions follows the chain as printed. Names and notes keep the numbering of the source. *1 amine or outer side, *2 acyl side, *3 side chain or, on linkers, in order; H or OH if unused. Where a SMILES comes first, the peptide text is derived from it. The star is where a group is joined. pNA = O=[N+]([O-])c1ccc(N*)cc1; Suc = O=C(CCC(=O)[*:2])[*:1]

Columns and labels:
Assay in all cases: Kinetic parameters by release of p-nitroaniline from suc-AAPFpNA (absorbance at 410 nm, Michaelis-Menten fit)
[1] = target: T1, wild-type subtilisin of Bacillus lentus (GG36), WT, SEQ ID NO: 2 (Lederbergia lenta, UniProt P29600); type: biochemical
T1 construct: made in house; host or cells: protease deficient Bacillus subtilis 168
T1 sequence (P29600 1-269): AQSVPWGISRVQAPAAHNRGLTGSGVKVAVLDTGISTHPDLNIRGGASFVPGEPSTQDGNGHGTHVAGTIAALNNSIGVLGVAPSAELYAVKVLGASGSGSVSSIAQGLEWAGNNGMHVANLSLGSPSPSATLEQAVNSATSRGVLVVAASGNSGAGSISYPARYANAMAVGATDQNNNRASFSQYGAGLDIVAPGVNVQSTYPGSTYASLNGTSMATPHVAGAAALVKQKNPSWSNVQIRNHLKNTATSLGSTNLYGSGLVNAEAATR
Experimental: (§1) Three selected mutants as well as the wild-type and one mutant of the patent application WO1995010591 A1 data set were cloned in a Bacillus vector behind a constitutive APRE promotor and expressed in a protease deficient Bacillus subtilis 168 strain. The transformed strains were grown for 24 hours at 37°C in shake flasks. The subtilisin variants were purified by Ion exchange chromatography followed by […] with a 0-200 mM salt gradient. The activity of the protease variants was determined by the release of the chromophore para-nitroanilide from succinyl-alanine-alanine-proline-phenylalanine-para-nitroanilide (suc-AAPFpNA). The release of the pNA causes an increase in the absorbance at 410 nm, the temporal progression of which is used as a measure of the activity of the enzymes.
(§2) The kinetic parameters kcat and Km of the variants were measured using basically the method described in Bonneau, P. R., Graycar, T. P., Estell, D. A., & Jones, J. B. (1991). Alteration of the specificity of subtilisin BPN'by site-directed mutagenesis in its S1 and S1'binding sites. Journal of the American Chemical Society, 113(3), 1026-1030. A small aliquot of purified subtilisin variant was added to a 96 microtiterplate well containing succinyl-L-Ala-L-Ala-L-Pro-L-Phe-p-nitroanilide (SEQ ID NO: 1) dissolved in 0.1M Tris-HCL, pH 8.6. The reaction progress was measured spectrophotometrically at 25°C by monitoring the absorbance of p-nitroaniline at 410nm. The corresponding experimental values were fit to the Michaelis-Menten equation by a regression algorithm. The kcat/KM ratio was obtained by dividing the resulting values. […] Table 2: kinetic parameters kcat and Km of the variants at pH 8.6
(§3) The kinetic parameters kcat and Km of the variants were also measured using basically the method described in Bonneau, P. R., Graycar, T. P., Estell, D. A., & Jones, J. B. (1991). Alteration of the specificity of subtilisin BPN'by site-directed mutagenesis in its S1 and S1'binding sites. Journal of the American Chemical Society, 113(3), 1026-1030. A small aliquot of purified subtilisin variant was added to a microtiterplate containing suc-AAPFpNA (SEQ ID NO:1) dissolved in 0.1M glycine pH10. The reaction progress was measured spectrophotometrically by monitoring the absorbance of p-nitroaniline at 410nm. The corresponding experimental values were fit to the Michaelis-Menten equation by a regression algorithm. The kcat/Km ratio was obtained by dividing the resulting values. […] Kcat kcat/km are indicated as % compared to the wild-type (100%). Table 3: kinetic parameters kcat and Km of the variants at pH 10

[2] = target: T2, Bacillus lentus subtilisin variant N74D/S99G/V102W/S126G/D191E/N198G/N212S/T254P, SEQ ID NO: 4 (Lederbergia lenta, UniProt P29600, D191E/N198G/N212S/N74D/S126G/S99G/T254P/V102W); type: biochemical
T2 construct: made in house; host or cells: protease deficient Bacillus subtilis 168
T2 sequence (P29600 1-269 N74D/S99G/V102W/S126G/D191E/N198G/N212S/T254P): T1 sequence (P29600 1-269) with N74D, S99G, V102W, S126G, D191E, N198G, N212S, T254P
Experimental: as §1, §2, §3

[3] = target: T3, Bacillus lentus subtilisin variant N74D/S101A/V102W (control variant of WO1995010591), SEQ ID NO: 3 (Lederbergia lenta, UniProt P29600, N74D/S101A/V102W); type: biochemical
T3 construct: made in house; host or cells: protease deficient Bacillus subtilis 168
T3 sequence (P29600 1-269 N74D/S101A/V102W): T1 sequence (P29600 1-269) with N74D, S101A, V102W
Experimental: as §1, §2, §3

[4] = target: T4, Bacillus lentus subtilisin variant N74D/S97D/S126G/P204I/T254P/S259N, SEQ ID NO: 6 (Lederbergia lenta, UniProt P29600, N74D/P204I/S126G/S259N/S97D/T254P); type: biochemical
T4 construct: made in house; host or cells: protease deficient Bacillus subtilis 168
T4 sequence (P29600 1-269 N74D/S97D/S126G/P204I/T254P/S259N): T1 sequence (P29600 1-269) with N74D, S97D, S126G, P204I, T254P, S259N
Experimental: as §1, §2, §3

[5] = target: T5, Bacillus lentus subtilisin variant N74D/S99G/V102W/S126G/N198A/N212S/T254P, SEQ ID NO: 5 (Lederbergia lenta, UniProt P29600, N198A/N212S/N74D/S126G/S99G/T254P/V102W); type: biochemical
T5 construct: made in house; host or cells: protease deficient Bacillus subtilis 168
T5 sequence (P29600 1-269 N74D/S99G/V102W/S126G/N198A/N212S/T254P): T1 sequence (P29600 1-269) with N74D, S99G, V102W, S126G, N198A, N212S, T254P
Experimental: as §1, §2, §3

[6] = substrate: C[C@H](NC(=O)CCC(=O)O)C(=O)N[C@@H](C)C(=O)N1CCC[C@H]1C(=O)N[C@@H](Cc1ccccc1)C(=O)Nc1ccc([N+](=O)[O-])cc1; type: biochemical, Bacillus lentus
Experimental: as §1, §2, §3

[7] = other: 0.1M Tris-HCL, pH 8.6, 25°C, pH 8.6, 25.0 °C
[8] = other: 0.1M glycine pH10, pH 10.0

C[C@H](NC(=O)CCC(=O)O)C(=O)N[C@@H](C)C(=O)N1CCC[C@H]1C(=O)N[C@@H](Cc1ccccc1)C(=O)Nc1ccc([N+](=O)[O-])cc1 [succinyl-L-Ala-L-Ala-L-Pro-L-Phe-p-nitroanilide] (Suc-AAPF-pNA)
kcat pH 8.6 ([1]; 0.1M Tris-HCL, pH 8.6, 25°C): 100 % of wild-type
kcat/Km pH 8.6 ([1]; 0.1M Tris-HCL, pH 8.6, 25°C): 100 % of wild-type
kcat pH 10 ([1]; 0.1M glycine pH10): 100 %half-life of wild-type
kcat/Km pH10 ([1]; 0.1M glycine pH10): 100 % wild-type
kcat pH 8.6 ([2]; 0.1M Tris-HCL, pH 8.6, 25°C): 579 % of wild-type
kcat/Km pH 8.6 ([2]; 0.1M Tris-HCL, pH 8.6, 25°C): 3326 % of wild-type
kcat pH 10 ([2]; 0.1M glycine pH10): 719 %half-life of wild-type
kcat/Km pH10 ([2]; 0.1M glycine pH10): 5100 % wild-type
kcat pH 8.6 ([3]; 0.1M Tris-HCL, pH 8.6, 25°C): 638 % of wild-type
kcat/Km pH 8.6 ([3]; 0.1M Tris-HCL, pH 8.6, 25°C): 1392 % of wild-type
kcat pH 10 ([3]; 0.1M glycine pH10): 554 %half-life of wild-type
kcat/Km pH10 ([3]; 0.1M glycine pH10): 2263 % wild-type
kcat pH 8.6 ([4]; 0.1M Tris-HCL, pH 8.6, 25°C): 55 % of wild-type
kcat/Km pH 8.6 ([4]; 0.1M Tris-HCL, pH 8.6, 25°C): 51 % of wild-type
kcat pH 10 ([4]; 0.1M glycine pH10): 37 %half-life of wild-type
kcat/Km pH10 ([4]; 0.1M glycine pH10): 97 % wild-type
kcat pH 8.6 ([5]; 0.1M Tris-HCL, pH 8.6, 25°C): 503 % of wild-type
kcat/Km pH 8.6 ([5]; 0.1M Tris-HCL, pH 8.6, 25°C): 6362 % of wild-type
kcat pH 10 ([5]; 0.1M glycine pH10): 723 %half-life of wild-type
kcat/Km pH10 ([5]; 0.1M glycine pH10): 10827 % wild-type

B1: wild-type subtilisin of Bacillus lentus (GG36), WT, SEQ ID NO: 2 (Lederbergia lenta) (protein)
chain: T1 sequence (P29600 1-269)
notes: made in house; host or cells: protease deficient Bacillus subtilis 168
Km [6, 7]: 630 µM
Km [6, 8]: 1340 µM

B2: Bacillus lentus subtilisin variant N74D/S99G/V102W/S126G/N198A/N212S/T254P, SEQ ID NO: 5 (Lederbergia lenta; N198A/N212S/N74D/S126G/S99G/T254P/V102W) (protein)
chain: T1 sequence (P29600 1-269) with N74D, S99G, V102W, S126G, N198A, N212S, T254P
notes: as for B1
Km [6, 7]: 50 µM
Km [6, 8]: 90 µM

B3: Bacillus lentus subtilisin variant N74D/S101A/V102W (control variant of WO1995010591), SEQ ID NO: 3 (Lederbergia lenta; N74D/S101A/V102W) (protein)
chain: T1 sequence (P29600 1-269) with N74D, S101A, V102W
notes: as for B1
Km [6, 7]: 290 µM
Km [6, 8]: 330 µM

B4: Bacillus lentus subtilisin variant N74D/S99G/V102W/S126G/D191E/N198G/N212S/T254P, SEQ ID NO: 4 (Lederbergia lenta; … (protein)
chain: T1 sequence (P29600 1-269) with N74D, S99G, V102W, S126G, D191E, N198G, N212S, T254P
notes: as for B1
Km [6, 7]: 110 µM
Km [6, 8]: 190 µM

B5: Bacillus lentus subtilisin variant N74D/S97D/S126G/P204I/T254P/S259N, SEQ ID NO: 6 (Lederbergia lenta; N74D/P204I/S126G/S259N/S97D/T254P) (protein)
chain: T1 sequence (P29600 1-269) with N74D, S97D, S126G, P204I, T254P, S259N
notes: as for B1
Km [6, 7]: 660 µM
Km [6, 8]: 520 µM
